The target in assay [1] is T1, KOD-plus DNA polymerase (Thermococcus kodakarensis, UniProt P77933, DEL407-766/DEL853-1389).
T1 construct: purchased Toyobo
The class given is biochemical, Thermococcus kodakaraensis KOD1. The protocol:
The effect produced by the addition of oxalate ion to a hot start enzyme was investigated using a hot start enzyme KOD-plus DNA polymerase containing KOD α-type enzyme) and two kinds of KOD antibodies. The PCR buffer supplied with KOD-plus (manufactured by Toyobo), 0.2 mM dNTPs and 0.3 μM of a primer pair of SEQ ID Nos:8 and 9 were used. PCR was performed using 2.5 U KOD-plus DNA polymerase and 20 ng of Genomic DNA derived from human cell line K562 as a template to investigate the influence of varying the concentration of oxalate ion added on the PCR results. The PCR conditions were as follows: 1 preliminary reaction of 94° C. for 2 minutes, and then 35 cycles of 94° C. for 15 seconds, 60° C. for 30 seconds and 68° C. for 8.5 minutes. The PCR was performed using GeneAmp2400 (PE Applied Biosystems).

A further assay addresses T2, Taq DNA polymerase (Thermus aquaticus, UniProt P19821).
T2 construct: purchased TOYOBO CO., LTD
The assay is described as follows: PCR using Taq DNA polymerase with added oxalate ion (Example 1-4). Conditions: for PCR amplification of 4.5-kb DNA of myelin oligodendrocyte glycoprotein: FIG. 5; for PCR amplification of 3.6-kb DNA of β-globin: FIG. 4. The class given is biochemical. The protocol: The effect produced by the addition of oxalate ions was investigated in PCR using Taq DNA polymerase. A PCR buffer (10 mM Tris-HCl (pH 8.3), 50 mM KCl, 1.5 mM MgCl2) attached to Taq (TOYOBO CO., LTD.), 0.2 mM dNTPs and 0.3 μM of a primer pair were used. A pair of primers of SEQ ID Nos:10 and 11 was used for the PCR amplification of a 3.6-kb DNA of β-globin cluster (the electrophoresis pattern of its PCR product is shown in FIG. 4), while a pair of primers of SEQ ID Nos:12 and 13 was used for the PCR amplification of a 4.5-kb DNA of myelin oligodendrocyte glycoprotein (the electrophoresis pattern of its PCR product is shown in FIG. 5). The influence of varying the concentration of oxalate ions added on the PCR results was investigated using 2.5 U Taq DNA polymerase and 20 ng of Genomic DNA derived from cultured human cell K562 as a template. The PCR conditions were as follows: 94° C. for 2 minutes as 1 preliminary reaction, and then 30 cycles of 94° C. for 15 seconds, 60° C. for 30 seconds and 68° C. for 8 minutes. The PCR amplification was performed by using GeneAmp 2400 (PE Applied Biosystems).

A further assay deals with T3, nPfu DNA polymerase (Pyrococcus furiosus, UniProt P61875).
T3 construct: α-Type Enzyme (Native Pfu); purchased STRATAGENE
T3 sequence (P61875 1-775): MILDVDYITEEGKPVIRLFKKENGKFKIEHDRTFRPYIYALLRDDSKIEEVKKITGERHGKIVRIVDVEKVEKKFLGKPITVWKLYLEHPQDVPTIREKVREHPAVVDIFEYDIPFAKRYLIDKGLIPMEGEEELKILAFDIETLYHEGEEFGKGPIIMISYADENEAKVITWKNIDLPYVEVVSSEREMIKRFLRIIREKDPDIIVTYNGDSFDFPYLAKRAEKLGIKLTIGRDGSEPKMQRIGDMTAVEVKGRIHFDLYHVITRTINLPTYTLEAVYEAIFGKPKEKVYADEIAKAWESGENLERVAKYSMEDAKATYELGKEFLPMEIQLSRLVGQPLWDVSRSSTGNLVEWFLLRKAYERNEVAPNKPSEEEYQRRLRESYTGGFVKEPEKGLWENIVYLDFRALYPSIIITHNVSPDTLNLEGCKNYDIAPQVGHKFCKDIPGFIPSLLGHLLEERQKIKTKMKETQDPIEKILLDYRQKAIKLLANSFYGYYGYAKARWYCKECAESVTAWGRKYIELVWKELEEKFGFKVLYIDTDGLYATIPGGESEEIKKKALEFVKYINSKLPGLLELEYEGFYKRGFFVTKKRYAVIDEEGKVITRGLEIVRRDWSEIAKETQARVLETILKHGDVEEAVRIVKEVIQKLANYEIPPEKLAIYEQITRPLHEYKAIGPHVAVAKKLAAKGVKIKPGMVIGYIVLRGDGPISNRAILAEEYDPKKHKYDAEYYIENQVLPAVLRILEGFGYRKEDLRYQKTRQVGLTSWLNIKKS
The assay is described as follows: PCR using nPfu DNA polymerase with added salts (Examples 1-5, 1-6). The class given is biochemical. The conditions noted are these: for amplification of target DNA (electrophoresis pattern): salt at 4-6 mM of ion equivalent, FIG. 7. The protocol: The effect produced by the addition of oxalate ion in PCR was investigated using nPfu polymerase. A PCR buffer (20 mM Tris-HCl (pH 8.75), 10 mM KCl, 10 mM (NH4) 2SO4, 2 mM MgSO4, 0.1% Triton X-100, 100 μg/ml BSA) attached to nPfu (STRATAGENE), 0.2 mM of dNTPs, and 0.3 μM of a pair of primers of SEQ ID NOs:12, and 13 were used. PCR was performed by using 2.5 U nPfu DNA polymerase and 20 ng of genomic DNA derived from human cell line K562 as a template, with the influence on the PCR result caused by varying the concentration of oxalate ion being investigated. PCR was performed by using GeneAmp2400 (PE Applied Biosystems) with the following conditions: 1 preliminary reaction of 94° C. for 2 minutes, and then 35 cycles of 94° C. for 15 seconds, 60° C. for 30 seconds and 68° C. for 8 minutes.
Salts (potassium chloride, potassium acetate, potassium oxalate, potassium sulfate) were tested for their effectiveness in PCR using nPfu DNA polymerase under the same conditions as Example 1-5.

Another assay deals with EX-Taq DNA polymerase. The assay is described as follows: PCR using EX-Taq DNA polymerase with added salts (Examples 1-1 to 1-3). The class given is biochemical. How it is done:
The effect produced by the addition of oxalate ions was investigated in the PCR using EX-Taq DNA polymerase. A PCR buffer supplied with EX-Taq (TAKARA) and 0.3 μM of a pair of primers of SEQ ID Nos:8 and 9 and 0.2 mM dNTPs were used. PCR was performed by using 1.0 U EX-Taq DNA polymerase and 20 ng of genomic DNA derived from human cell line K562 as a template, with the influence on the PCR result caused by varying the concentration of added oxalate ion being investigated. The PCR conditions were as follows: 1 preliminary reaction of 94° C. for 2 minutes, and then 35 cycles of 94° C. for 15 seconds, 60° C. for 30 seconds and 68° C. for 8.5 minutes. This PCR amplification was performed by using GeneAmp2400 (PE Applied Biosystems).
Salts (potassium chloride, potassium acetate, potassium oxalate, sodium oxalate, potassium sulfate) were investigated for their effectiveness in PCR using EX-Taq DNA polymerase under the same conditions as Example 1. Each salts was used in an amount of 4 to 6 mM of ion equivalent

The target in assay [2] is T1, KOD-plus DNA polymerase. Format: biochemical, Thermococcus kodakaraensis KOD1. Conditions: for amplification of target DNA (electrophoresis pattern): salt at 6 mM of ion equivalent, FIG. 9; for effect on extra bands: FIG. 10.
Setting [3] is: K562 genomic DNA template, FIG. 1.

Where two headings read alike, the source gives them in different places.

T1 sequence (P77933 other isoform, or with tags, fused parts or gaps DEL407-766/DEL853-1389): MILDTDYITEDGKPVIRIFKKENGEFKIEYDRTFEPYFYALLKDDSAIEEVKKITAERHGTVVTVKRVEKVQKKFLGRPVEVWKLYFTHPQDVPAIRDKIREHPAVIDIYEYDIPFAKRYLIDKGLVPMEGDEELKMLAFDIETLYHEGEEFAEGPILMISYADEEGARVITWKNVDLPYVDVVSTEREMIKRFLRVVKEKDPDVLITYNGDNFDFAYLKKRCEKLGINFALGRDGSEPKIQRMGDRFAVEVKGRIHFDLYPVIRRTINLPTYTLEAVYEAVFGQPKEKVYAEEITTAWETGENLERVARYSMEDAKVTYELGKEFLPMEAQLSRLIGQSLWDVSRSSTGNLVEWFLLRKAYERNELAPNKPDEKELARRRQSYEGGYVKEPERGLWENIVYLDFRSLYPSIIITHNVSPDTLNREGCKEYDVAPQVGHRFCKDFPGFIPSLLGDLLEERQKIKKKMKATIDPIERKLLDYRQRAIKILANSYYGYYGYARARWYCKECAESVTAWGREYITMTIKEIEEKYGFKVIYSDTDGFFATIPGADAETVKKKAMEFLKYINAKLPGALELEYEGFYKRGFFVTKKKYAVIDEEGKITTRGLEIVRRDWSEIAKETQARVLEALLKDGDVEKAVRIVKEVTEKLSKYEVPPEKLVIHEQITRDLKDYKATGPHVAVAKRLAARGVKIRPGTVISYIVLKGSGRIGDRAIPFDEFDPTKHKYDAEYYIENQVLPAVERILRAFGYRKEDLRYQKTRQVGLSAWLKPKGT
T2 sequence (P19821 whole entry): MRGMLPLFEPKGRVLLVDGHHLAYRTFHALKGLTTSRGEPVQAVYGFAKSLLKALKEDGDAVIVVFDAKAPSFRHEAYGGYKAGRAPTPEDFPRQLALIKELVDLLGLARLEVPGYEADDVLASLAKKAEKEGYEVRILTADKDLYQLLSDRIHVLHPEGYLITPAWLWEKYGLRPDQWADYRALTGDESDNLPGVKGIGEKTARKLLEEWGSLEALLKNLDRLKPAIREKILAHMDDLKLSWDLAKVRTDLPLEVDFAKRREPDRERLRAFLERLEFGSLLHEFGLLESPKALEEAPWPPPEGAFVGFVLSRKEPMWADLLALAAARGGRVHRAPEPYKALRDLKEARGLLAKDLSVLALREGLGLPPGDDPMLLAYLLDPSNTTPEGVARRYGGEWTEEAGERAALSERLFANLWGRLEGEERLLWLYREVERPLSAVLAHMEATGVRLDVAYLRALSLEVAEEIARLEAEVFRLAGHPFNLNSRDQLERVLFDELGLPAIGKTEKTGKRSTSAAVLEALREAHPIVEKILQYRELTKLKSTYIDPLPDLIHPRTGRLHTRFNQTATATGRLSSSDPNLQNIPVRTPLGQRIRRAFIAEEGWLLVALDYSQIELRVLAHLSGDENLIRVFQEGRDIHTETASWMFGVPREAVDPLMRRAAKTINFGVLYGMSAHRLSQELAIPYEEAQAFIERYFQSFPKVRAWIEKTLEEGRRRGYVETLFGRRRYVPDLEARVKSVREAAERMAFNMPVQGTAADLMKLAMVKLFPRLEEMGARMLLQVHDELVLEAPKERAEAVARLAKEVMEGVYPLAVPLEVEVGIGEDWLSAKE

On to `O=C(O)C(=O)O` [oxalate ion], for which the “concentration range within which the effect of the addition of oxalate ion is found” value on KOD-plus DNA polymerase [1], at Taq DNA polymerase and on nPfu DNA polymerase was “up to 5 mM” each time. For the same compound, the entries for the “PCR amplification of 4.5-kb DNA of myelin oligodendrocyte glycoprotein” value on Taq DNA polymerase (1 mM oxalate ion) and at Taq DNA polymerase (2 mM oxalate ion) were “amplification of the target DNA was observed together with a smear” and “no smear was observed”, respectively. Also, the “PCR amplification of 3.6-kb DNA of β-globin” value at Taq DNA polymerase (2 mM oxalate ion) is “amplification of the target sequence was observed together with a smear”; at Taq DNA polymerase (4 mM oxalate ion), “no smear was observed”. Further, the “oxalate ion concentration giving a discrete amplification band” value on Taq DNA polymerase (3.6-kb DNA of β-globin) lay in the range of 4 to 5 mM; at Taq DNA polymerase (4.5-kb DNA of myelin oligodendrocyte glycoprotein), 2 to 5 mM. For the same compound, the “oxalate ion concentration at which amplification of the target DNA was observed” value at nPfu DNA polymerase (FIG. 6) is 2 to 5 mM. For the same compound, in the assay with EX-Taq DNA polymerase, the “concentration range of oxalate ion within which the effect of the addition is found” value is “up to 4 mM”. For the same compound, the “oxalate ion amount at which amplification of the target DNA was confirmed” value in the assay on EX-Taq DNA polymerase (setting [3]) lay in the range of 1 to 4 mM. The “oxalate ion concentration at which the amount of amplification was the highest” value in the assay on EX-Taq DNA polymerase (setting [3]) fell in the range of 2 to 3 mM.

Take `CC(=O)[O-].[K+]` [potassium acetate, reference compound]: the “amplification of target DNA (electrophoresis pattern)” value (“amplification of target DNA” for short) at nPfu DNA polymerase is reported as “amplification of the target DNA was not observed”; on KOD-plus DNA polymerase [2], “Amplification of the target DNA was not observed”.

Consider `[Cl-].[K+]` [potassium chloride, reference compound], for which the “amplification of target DNA” value at nPfu DNA polymerase is given as “amplification of the target DNA was not observed”; on KOD-plus DNA polymerase [2] it was “Amplification of the target DNA was not observed”.

Turning to `O=C[O-].[K+]` [potassium formate, reference compound], in the assay on EX-Taq DNA polymerase (carboxylate salts, FIG. 3), the “amplification of target DNA” value is recorded as “A similar effect to that produced by oxalate salts was not observed”.

`O=C([O-])CCC(=O)[O-].[K+].[K+]` [potassium succinate, reference compound]: the “amplification of target DNA” value in the assay on EX-Taq DNA polymerase (carboxylate salts, FIG. 3) is “A similar effect to that produced by oxalate salts was not observed”.

For the compound `O=S(=O)([O-])[O-].[K+].[K+]` [potassium sulfate, reference compound], the entries for the “amplification of target DNA” value on nPfu DNA polymerase and on KOD-plus DNA polymerase [2] were “amplification of the target DNA was not observed” and “Amplification of the target DNA was not observed”, respectively.

In the case of `O=C([O-])/C=C\C(=O)[O-].[Na+].[Na+]` [sodium maleate], the “effect on extra bands” value is “extra bands tended to decrease” on KOD-plus DNA polymerase [2] (4 mM salt) and “most of the extra bands disappeared” at KOD-plus DNA polymerase [2] (10 mM salt).

Take `O=C([O-])CC(=O)[O-].[Na+].[Na+]` [sodium malonate]: the “effect on extra bands” value at KOD-plus DNA polymerase [2] (2 mM salt) is “the extra bands tended to decrease”; on KOD-plus DNA polymerase [2] (6 mM salt) it was “most of the extra bands disappeared”.

For `O=C([O-])C(=O)[O-].[Na+].[Na+]` [sodium oxalate], the “amplification of target DNA” value is listed as “Amplification was observed” on KOD-plus DNA polymerase [2]; “amplification of the target DNA was observed” in the assay with EX-Taq DNA polymerase (carboxylate salts, FIG. 3); “Amplification was observed” in the assay with EX-Taq DNA polymerase (salt at 4 to 6 mM of ion equivalent, FIG. 2).

The record behind these values is patent US20050069887A1, “Dna synthesis promoters dna polymerase-associated factors and utilization thereof” (priority 2001, published 2005).
